Like-named read-outs stand apart in the source and are kept apart here.
How the values were obtained:
[1] = test system: thoracic aorta specimens of SHRs; experiment: measurement test of isometric tension in blood vessels (vasodilatory effect on phenylephrine-constricted ring specimens); assay type: cell-based, rat (spontaneously hypertensive rat, SHR); parameters: dilation rate: dose or concentration left out as unconfirmed; settings: for concentration from which a vasodilatory effect / dilation reaction is shown: cumulative addition
Experimental: In the examination of each condition, concentration of the active ingredient was checked by identifying fractions showing vasodilatory effect by measurement test of isometric tension in blood vessels at each purification stage.
Thoracic aorta used for the test was removed from a male 10-12 week-old SHR; after removal of the connective tissue, it was cut into a length 2-3 mm to produce ring specimens. The resulting ring specimens were attached to an organ bus filled with Krebs solution of 37° C. (119 mM NaCl/4.7 mM KCl/1.1 mM KH2PO4/1.2 mM MgSO4/25 mM NaHCO3, pH 7.4) in which a mixed gas of 95% O2-5% CO2 was aerated, then a static tension of 1.5 g was applied (UFER UC-05A; Iwashiya Kishimoto Ika Sangyo K.K., Kyoto). Vascular tension was measured by UFER UM-203 transducer (Iwashiya Kishimoto Ika Sangyo). After 60-min incubation from the attachment, the ring specimens were constricted using a vasoconstrictor phenylephrine (final concentration of 0.30 μM). To the constricted ring specimens, commercially available acetylcholine, that is an endothelium-dependent vasodilator (final concentration of 100 μM) was added, and presence/absence of vascular endothelium was determined by presence/absence of vasodilatory effect. Then, the ring specimens were washed with Krebs solution to remove the drugs, incubated at static tension for 10 min, and again constricted by 0.30 μM phenylephrine.

[2] = test system: systolic blood pressure of SHRs; experiment: single oral administration test to SHRs (blood pressure by tail cuff method); assay type: in vivo, rat (spontaneously hypertensive rat; settings: single oral 10^−11 mol/kg, SHR; for blood pressure effect compared to the control group: measured 3, 6, 9 and 24 h after administration; for maximum decrease in systolic blood pressure: 9 h after administration, compared to the control group
Experimental: Animal experiments were carried out according to the animal experiment guidelines of Shinshu University. In the present study, spontaneously hypertensive rats of 10-13 week-old males (SHR/NCrlCrlj, Charles River Laboratories Japan, Yokohama) were used as an experimental animal. SHRs were bred in individual cages in a breeding room controlled with a light-dark cycle of […] and a room temperature of 22-23° C. In acclimation breeding, rat standard diet (MF; Charles River Laboratories) and tap water were fed ad libitum. SHRs are a rat strain that has been isolated in 1963 by selection mating from Wistar-Kyoto rats that had been bred in the animal experimentation center of Kyoto University. They are referred to as spontaneously hypertensive rats or essential hypertensive rats; while systolic blood pressure of the separation maternal. Wistar-Kyoto rats is approximately 135 mmHg for mature males and approximately 132 mmHg for mature females, blood pressure of almost all the SHRs becomes 150 mmHg or higher at 2 months from the birth, and reaches almost a maximum value at 4-5 months, with many of the values showing 180-210 mmHg. In general, as a model animal of essential hypertension that s said to be account for approximately 90% of the hypertension in humans, SHRs have been used to elucidate pharmacological effects and food functions, and a mechanism of blood pressure rise.
Single oral administration test was carried out using male 12-week-old SHRs with a body weight of 280-320 g. After acclimation breeding for 1 week, the rats were fasted for 12 h, and a sample was given to the rats by a single oral administration. The sample to be administered was dissolved in pure water, and given by a single oral administration with a dose of 10^−11 mol/kg (b.w.) to each 6 SHRs. Sample aqueous solutions of purified acetylcholine, propionylcholine and butyrylcholine were acidic, with a pH of 4.7, 4,3, and 4.4, respectively. To the control group, pure water was administered. Changes in the systolic blood pressure and diastolic blood pressure were measured using non-invasive blood pressure measuring instrument Softron BP-98A (Softron Co., Ltd., Tokyo) by tail cuff method, before administration and at 3, 6, 9, and 24 h after administration. Results of the single oral administration test of purified acetylcholine, propionylcholine and butyrylcholine were shown in FIG. 7.

| EC50 ([1]; hydrochloride salts, cumulative addition 10^−9 to 10^−4 M, read-out: EC50 of vasodilatory effect) | EC50 ([1]; Rattus norvegicus, hydrochloride salt, summary sentence b69, read-out: EC50 of vasodilatory effect (unit inferred)) | EC50 ([1]; Rattus norvegicus, hydrochloride salts, cumulative addition 10^−9 to 10^−4 M, read-out: EC50 of vasodilatory effect) | SMILES | dilation ([1]; at the addition of 10^−4 M) | blood pressure effect compared to the control group [2] | maximum dilation rate ([1]; at 10^−4 M) | concentration from which a vasodilatory effect / dilation reaction is shown ([1]; hydrochloride salts) | maximum decrease in systolic blood pressure [2] | maximum dilation rate ([1]; at 10^−6 M) | dilation rate ([1]; at the addition) |
| --- | --- | --- | --- | --- | --- | --- | --- | --- | --- | --- |
| – | – | – | CCCC(=O)OCC[N+](C)(C)C [butyrylcholine] | 7.14% | no significant decrease in blood pressure | – | – | – | – | – |
| 2270 nM | – | – | CCC(=O)OCC[N+](C)(C)C [propionylcholine] | – | significant vasodilatory effect | 95.2% | 10^−7 M | 8.05 mmHg | – | – |
| – | 27.2 nM | 27.2 nM | CC(=O)OCC[N+](C)(C)C [acetylcholine] | – | – | – | 10^−9 M | 24.7 mmHg | 89.9% | 1.52% |

From patent US20170182108A1, “FERMENTED FOOD EXTRACT COMPOSITION” (priority 2014, published 2017)
